The record followed here is ChEMBL document CHEMBL1157112, “Discovery of anti-inflammatory clinical candidate E6201, inspired from resorcylic lactone LL-Z1640-2, III” (Bioorg Med Chem Lett, 2010).

The subject of one data set is THP-1. Put plainly: Antiinflammatory activity in human THP1 cells assessed as inhibition of LPS-induced TNFalpha production by PLAP reporter assay. Type of data set: functional, cell-based. (Reporter assays use an easily measured gene product as a stand-in for the process of interest.)
Data set [1] can be described thus: Oral bioavailability in mouse. It counts as ADME, organism-based. To be noted: in vivo.
Data set [2] is described as follows: Antiinflammatory activity in human B164 cells assessed as inhibition of LPS-induced Actin production by PLAP reporter assay. Type of data set: functional.
The species entered for data set [3] is Mus musculus. Nature of the data set: Ratio of ED50 for BALB/c mouse collagen antibody induced arthritis model to tolerated dose for BALB/c mouse collagen antibody induced arthritis model. Type of data set: functional.
The nature of data set [4]: Toxicity in po dosed BALB/c mouse collagen antibody induced arthritis model assessed as tolerated dose. It counts as organism-based. To be noted: in vivo.
Data set [5] deals with Mus musculus. Nature of the data set: Antiarthritic activity in po dosed BALB/c mouse collagen antibody induced arthritis model assessed as inhibition of increase of arthritis score administered qd for 2 days after collagen antibody challenge measured after 2 days. It counts as functional. To be noted: 48 h.

On to `C[C@@H]1/C=C\C(=O)[C@@H](O)[C@@H](O)C/C=C/c2cc(N3CCOCC3)cc(O)c2C(=O)O[C@H]1C`, for which, in the data set on THP-1, the IC50 was 129 nM. The same compound came in with a bioavailability in data set [1] of 48%.

For the compound `C[C@@H]1/C=C\C(=O)[C@@H](O)[C@@H](O)C/C=C/c2cc(N)cc(O)c2C(=O)O[C@H]1C`, in the data set with THP-1, the IC50 was determined as 360 nM. Also, in data set [1], the bioavailability came out at 49%.

As to `C[C@@H]1/C=C\C(=O)[C@@H](O)[C@@H](O)C/C=C/c2c(c(O)cc3c2ncn3C)C(=O)O[C@H]1C`, the Activity in data set [2] was more than 10 µM. Also, the IC50 in the data set on THP-1 turned out to be 23 nM. Further, the Ratio in the data set listed under Mus musculus [3] is reported as 1. Further, the MTD in data set [4] was less than 5 mg/kg. The ED50 in the data set with Mus musculus [5] was found to be 5 mg/kg. For the same compound, the bioavailability in data set [1] came to 49%.

Consider `C[C@@H]1/C=C\C(=O)[C@@H](O)[C@@H](O)C/C=C/c2cc(N3CCNCC3)cc(O)c2C(=O)O[C@H]1C`, for which the IC50 in the data set with THP-1 is 351 nM.

For the compound `C[C@@H]1/C=C\C(=O)[C@@H](O)[C@@H](O)C/C=C/c2cc(NCc3ccccc3)cc(O)c2C(=O)O[C@H]1C`, the IC50 in the data set on THP-1 was found to be 1250 nM.

Regarding `CCCNc1cc(O)c2c(c1)/C=C/C[C@H](O)[C@H](O)C(=O)/C=C\[C@@H](C)[C@H](C)OC2=O`, the IC50 in the data set on THP-1 was found to be 26 nM.

Take `CCNc1cc(O)c2c(c1)/C=C/C[C@H](O)[C@H](O)C(=O)/C=C\[C@@H](C)[C@H](C)OC2=O` [E-6201]: the IC50 in the data set with THP-1 came to 56 nM. In addition, in the data set filed under Mus musculus [3], the Ratio was 3. The MTD in data set [4] is more than 30 mg/kg. In the data set on Mus musculus [5], the ED50 amounted to 5 mg/kg. In addition, in data set [1], the bioavailability was 12%.

Take `C[C@]12C=CC(=O)C=C1CC[C@@H]1[C@@H]2[C@@H](O)C[C@@]2(C)[C@H]1CC[C@]2(O)C(=O)CO` [PREDNISOLONE]: the Ratio in the data set filed under Mus musculus [3] is listed as 3. Further, the MTD in data set [4] was determined as 10 mg/kg. Further, the ED50 with Mus musculus [5] stood at 3 mg/kg.

Regarding `C[C@@H]1/C=C\C(=O)[C@@H](O)[C@@H](O)C/C=C/c2cc(N(C)C)cc(O)c2C(=O)O[C@H]1C`, the IC50 in the data set on THP-1 stood at 437 nM. Besides, the Ratio in the data set listed under Mus musculus [3] was found to be 4. Also, the MTD in data set [4] was determined as 60 mg/kg. In addition, the 50% effective dose (ED50) in the data set with Mus musculus [5] was 15 mg/kg. This compound yielded a bioavailability in data set [1] of 21%.

On to `COc1ccc2c(c1)c(CC(=O)O)c(C)n2C(=O)c1ccc(Cl)cc1` [INDOMETHACIN], for which the Ratio in the data set filed under Mus musculus [3] is 3. The MTD in data set [4] turned out to be 3 mg/kg. For the same compound, in the data set on Mus musculus [5], the ED50 was 1 mg/kg.

In the case of `CCn1cnc2c3c(c(O)cc21)C(=O)O[C@@H](C)[C@H](C)/C=C\C(=O)[C@@H](O)[C@@H](O)C/C=C/3`, the Activity in data set [2] was more than 10 µM. Further, in the data set with THP-1, the IC50 was 43 nM. Besides, in the data set listed under Mus musculus [3], the Ratio was 1. Besides, the MTD in data set [4] was less than 10 mg/kg. In addition, the ED50 in the data set with Mus musculus [5] amounted to 10 mg/kg.

As to `Cc1nc2c3c(c(O)cc2n1C)C(=O)O[C@@H](C)[C@H](C)/C=C\C(=O)[C@@H](O)[C@@H](O)C/C=C/3`, in data set [2], the Activity was more than 10 µM. In addition, the half-inhibitory concentration (IC50) in the data set with THP-1 came out at 108 nM. For the same compound, the Ratio in the data set listed under Mus musculus [3] amounted to 1. For the same compound, the MTD in data set [4] is less than 10 mg/kg. The 50% effective dose (ED50) with Mus musculus [5] turned out to be 10 mg/kg.

For `CCN(CC)c1cc(O)c2c(c1)/C=C/C[C@H](O)[C@H](O)C(=O)/C=C\[C@@H](C)[C@H](C)OC2=O`, the IC50 with THP-1 turned out to be 2070 nM.

Turning to `C[C@@H]1/C=C\C(=O)[C@@H](O)[C@@H](O)C/C=C/c2cc(NCCO)cc(O)c2C(=O)O[C@H]1C`, in the data set on THP-1, the IC50 was 71 nM.

Take `CNc1cc(O)c2c(c1)/C=C/C[C@H](O)[C@H](O)C(=O)/C=C\[C@@H](C)[C@H](C)OC2=O`: the IC50 with THP-1 was found to be 85 nM. Moreover, the Ratio in the data set listed under Mus musculus [3] turned out to be 6. In addition, the MTD in data set [4] was more than 30 mg/kg. Besides, the ED50 with Mus musculus [5] is 5 mg/kg. Moreover, the bioavailability in data set [1] was determined as 29%.

The IC50 is the concentration needed to halve the response being measured. For orientation: bioavailability means dose-corrected exposure relative to a reference, in per cent. Read a high bioavailability as much systemic uptake. The MTD is the largest dose that counted as tolerated. As usually defined, the ED50 is the midpoint of the dose-response relation.
